Assay results taken from patent US11191801B2, “Pharmaceutical composition for preventing or treating diabetic complications and angioedema, containing natural mixture extract as active ingredient” (KOREA INSTITUTE OF ORIENTAL MEDICINE, priority 2014, dated 2021).
Values joined by “and” are separate entries in the source; they are usually repeats but may differ in a detail not shown here. Identical values can stand only once. One block for each compound: values may come before it.

Legend:
[1] = tested on: advanced glycation end-products (AGEs); assay: Inhibition of producing advanced glycation end-products (AGEs) in vitro (BSA with fructose/glucose, fluorescence); assay type: biochemical; conditions: BSA 10 mg/mL, 0.2 M fructose and 0.2 M glucose, 37° C., seven days
Experimental: Specifically, 10 mg/mL of bovine serum albumin (BSA, Sigma, USA) dissolved in 50 mM phosphate buffer (pH 7.4) was used as a protein source, and the solution mixed with 0.2 M fructose and 0.2 M glucose was used as a sugar source. The extracts of Examples and aminoguanidine (positive control group) were dissolved in 0.2% dimethylsulfoxide (DMSO), followed by dissolving again in 15% tween 80. The thus-prepared protein source, sugar source, and extracts were mixed, prepared at 1 mL in total, cultured at 37° C. for seven days, and allowed to undergo glycation. Herein, 0.02% sodium azide, an antibacterial agent, was added to prevent bacterial production. After cultivation, the fluorescence was measured at an absorption wavelength of 350 nm and an emission wavelength of 450 nm using a spectrofluorometric detector (Bio-TEK, USA).

[2] = biological target: T1, cross-link between AGE-BSA and collagen (Bos taurus, UniProt P02769); assay: Fragmentizing cross-link of advanced glycation end-products (AGE-BSA/collagen ELISA); assay type: biochemical; conditions: AGE-BSA cross-linked to collagen, 37° C., four hours
T1 construct: purchased Transgenic Inc. Kobe, Japan (AGE-BSA); Greiner Bio-One, Germany (collagen-coated plate)
T1 sequence (P02769 25-607): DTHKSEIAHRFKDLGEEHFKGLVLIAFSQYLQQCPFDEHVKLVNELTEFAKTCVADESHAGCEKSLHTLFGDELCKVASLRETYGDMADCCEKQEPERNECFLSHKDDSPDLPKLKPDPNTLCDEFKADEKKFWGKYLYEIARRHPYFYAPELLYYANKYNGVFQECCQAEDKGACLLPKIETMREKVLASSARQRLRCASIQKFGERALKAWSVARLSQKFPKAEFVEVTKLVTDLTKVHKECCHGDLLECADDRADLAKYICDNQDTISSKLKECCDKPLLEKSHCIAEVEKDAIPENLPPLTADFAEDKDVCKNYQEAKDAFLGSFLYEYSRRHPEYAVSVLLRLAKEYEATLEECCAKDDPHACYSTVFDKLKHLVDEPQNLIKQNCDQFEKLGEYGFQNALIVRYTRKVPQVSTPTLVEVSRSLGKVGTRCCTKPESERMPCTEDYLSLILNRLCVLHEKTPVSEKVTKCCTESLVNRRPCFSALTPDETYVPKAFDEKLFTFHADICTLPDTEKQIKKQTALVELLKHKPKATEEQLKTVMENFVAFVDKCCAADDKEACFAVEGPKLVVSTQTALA
Experimental: Specifically, 1.0 μg of AGE-BSA (Transgenic Inc. Kobe, Japan) was dispensed into a collagen-coated 96-well microtiter plate (Greiner Bio-One, Germany) and cultured at 37° C. for four hours, and then the AGE-BSA and collagen were allowed to cross-link. After washing the resultant three times with PBST (0.05%) to remove AGE-BSA not linked, a mixed extract and ALT-711 were added, and cultured at 37° C. for four hours. Thereafter, the resultant was washed with PBST (0.05%), and in order to detect the AGE-BSA remaining due to the cross-link to collagen, mouse monoclonal anti-AGE-BSA antibodies (6D12, Transgenic Inc. Kobe, Japan) were diluted at 1:250 and dispensed, followed by cultivation at 37° C. for one hour. After one hour, the resultant was washed with PBST (0.05%) and reacted with HRP-linked goat anti-mouse IgG antibodies (Santa Cruz, USA) to develop TMB (3.3′,5,5′-tetramethylbenzidine) as a substrate. Thereafter, absorbance was measured at 450 nm. The cross-link fragmentation effect (%) of AGE-BSA was calculated as shown in the following Equation 2.

[3] = tested on: db/db mice; assay: Therapeutic model with metformin co-administration: formation of acellular capillaries; assay type: in vivo; conditions: metformin 350 mg/kg/day alone
Experimental: Specifically, eyeballs were enucleated from mice in the same manner as Experimental Example 6-2, and retinas were enucleated from the eyeballs and washed with running water. Thereafter, they were placed in 3% trypsin and cultured at 37° C. for one hour. The digested retinas were transferred to PBS, and the internal membrane (membrane of organelle present in cells) was removed. The vascular frame was separated from the retinal background using a glass rod, placed on a slide, and dried. The dried vascular frame was then stained with PAS and hematoxylin, and variations in cell walls and nuclei were confirmed.

[4] = tested on: claudin-5 and occludin; assay: Therapeutic model with metformin co-administration: damage to tight-junction proteins; assay type: in vivo, mice; conditions: metformin 350 mg/kg/day alone
Experimental: In addition, the resultant was dehydrated and substituted three times with xylene, thereby embedding the same with paraffin. Blocks of the embedded tissue were prepared as serial sections in a thickness of 4 μm, and placed on slides for use. In order to remove an endogenous peroxidase activity, a slide which underwent deparaffinization and function processes was allowed to react with 3% hydrogen peroxide solution for 10 minutes, and then washed three times with PBS containing 0.05% tween 20. […] Thereafter, the diluted primary antibodies were treated for one hour or overnight. After washing with PBS for one hour, a labeled streptoavidin biotin (LSAB) kit (Dako, USA) was applied to the resultants, developed with DAB, and then observed using an optical microscope. […] Thereafter, the resultants were stained with DAPI and observed using a fluorescence microscope.

[5] = tested on: db/db mice; assay: Therapeutic model with metformin co-administration: damage to blood-retinal barrier; assay type: in vivo; conditions: metformin 350 mg/kg/day alone
Experimental: In addition, 50 mg/mL of fluorescein-dextran (2×10^6 molecular weight) which was prepared by dissolving in sterilized PBS (1 mL) was injected into the left ventricle. After 10 minutes, the eyeballs were enucleated, and the left eyeball was placed in an eyecup. The separated retina was placed on a slide, and then mounted using aqueous mounting medium. After this was sufficiently dried, a fluorescence microscope was used to observe the same. The results were confirmed at 12 weeks, 18 weeks, and 24 weeks of inducing diabetes, respectively.

[6] = tested on: human retinal pigment epithelial cell line (ARPE-19); conditions: Molecular Vision 2011; 17: 3512-3522; cited from earlier work
[7] = tested on: MNU-induced C57BL/6 mice; assay: MNU-induced macular degeneration model, extracts versus paeoniflorin: thickness of outer nuclear layers; assay type: in vivo; conditions: for Thickness of outer nuclear layer (AU): orally
Experimental: 6-week-old male C57BL/6 mice were used after purification thereof for one week. In order to induce damage and denaturation of photoreceptor cells, among morphological changes of retinal tissues which appeared in macular degeneration, 1% (0.05% acetic acid) N-methyl-N-nitrosourea (MNU, Sigma, USA) was intraperitoneally injected to the 7-week-old male C57BL/6 mice at a concentration of 60 mg/kg. The same amount of 0.05% acetic acid was intraperitoneally administered to the normal group. As the samples, CMO4 (100 mg/kg), which is the extract of cinnamon twig and moutan root bark (1:8), and CPA4 (100 mg/kg), which is the extract of cinnamon twig and peony root (1:8), paeoniflorin −2.7 (2.7 mg/kg), and paeoniflorin −12.3 (12.3 mg/kg) were suspended and prepared in 0.5% CMC and administered orally once before the MNU administration day. After administration of MNU, these resultants were orally administered once a day for seven days, respectively. In the normal and MNU-induced groups, the same amount of 0.5% CMC was orally administered.
Change in a thickness of outer nuclear layers caused by damage to photoreceptor cells in retinal nerve tissues was confirmed.
Specifically, experimental groups in which the samples were treated in the same manner as Experimental Example 8-1 were autopsied after the administration, and eyeballs were enucleated. Thereafter, the enucleated eyeballs were fixed in 10% neutralized formalin for one day, and embedded with paraffin to prepare slide sections. The slide sections were stained with H&E and observed under an optical microscope.

- IC50 (μg/mL), inhibition of production of advanced glycation end-products [1]: 82.50 ± 1.10 µg/mL
Structure (SMILES): N=C(N)NN [AG, aminoguanidine]

- IC50 (μg/mL), cross-link fragmentation effect of AGE-BSA [2]: 17,060 ± 2.35 μg/mL
Structure (SMILES): Cc1sc[n+](CC(=O)c2ccccc2)c1C.[Cl-] [ALT-711]

Structure (SMILES): CN(C)C(=N)N=C(N)N [metformin]
- formation of acellular capillaries [3]: could not prevent the proliferation
- amount of occludin (western blot) [4]: no significant increase
- claudin-5 loss (staining) [4]: snapped in various regions of blood vessels
- outflow of fluorescent substances ([5]; at 18 weeks): significantly reduced
- outflow of fluorescent substances ([5]; at 24 weeks): not prevented

Structure (SMILES): C[C@@]12C[C@@]3(O)O[C@@H](O1)[C@]1(COC(=O)c4ccccc4)[C@H]3C[C@@]12O[C@@H]1O[C@H](CO)[C@@H](O)[C@H](O)[C@H]1O [paeoniflorin]
- apoptosis caused by H2O2 [6]: inhibitory effect on apoptosis
- Thickness of outer nuclear layer (AU) ([7]; Table 4: CMO4 100 mg/kg, paeoniflorin 2.7 mg/kg, NOR 1.99, MNU 1.23, listed as PF-2.7): 1.23±0.21 AU
- Thickness of outer nuclear layer (AU) ([7]; Table 5: CPA4 100 mg/kg, paeoniflorin 12.4 mg/kg, NOR 1.99, MNU 0.92, listed as PF-12.4): 1.11±0.19 AU
- Thickness of outer nuclear layer (%) ([7]; Table 5: CPA4 100 mg/kg, paeoniflorin 12.4 mg/kg, NOR = 100, MNU = 0.57, listed as PF-12.4): 17.5% and 17.46 ± 17.39%
